For this assay, the system named is tumors. Briefly: Fluorescence tumor imaging dose versus PDT therapeutic dose (FIG. 4). Type of assay: in vivo.

Turning to `CCCCCCOC(C)c1c(C)c2cc3nc(c4c5[nH]c(cc6nc(cc1[nH]2)C(C)=C6CC)c(C)c5C(=O)C4)C(CCC(=O)Nc1ccc(SC2=C(C=CC4=[N+](CCCCS(=O)(=O)[O-])c5ccc6ccccc6c5C4(C)C)CCCC2=CC=C2N(CCCCS(=O)(=O)[O-])c4ccc5ccccc5c4C2(C)C)cc1)C3C.[Na+]` (stereo not shown) [HPPH-CD], the “therapeutic dose relative to tumor-imaging dose (fold higher)” value is reported as approximately 10 fold.

Source of the values: patent publication US9155791B2, “Metallation enhancements in tumor-imaging and PDT therapy” (Health Research, Inc., priority 2010, dated 2015).
